Reference: paper PMC6469940 (Science Advances, 2019)

Target: T1, hM4D(Gi) (human M4 muscarinic receptor-based DREADD) (Homo sapiens, UniProt P08173, A203G/Y113C)
T1 construct: gene CHRM4; hM4D(Gi) plasmid (Addgene 45548)
T1 sequence (P08173 1-479 Y113C/A203G): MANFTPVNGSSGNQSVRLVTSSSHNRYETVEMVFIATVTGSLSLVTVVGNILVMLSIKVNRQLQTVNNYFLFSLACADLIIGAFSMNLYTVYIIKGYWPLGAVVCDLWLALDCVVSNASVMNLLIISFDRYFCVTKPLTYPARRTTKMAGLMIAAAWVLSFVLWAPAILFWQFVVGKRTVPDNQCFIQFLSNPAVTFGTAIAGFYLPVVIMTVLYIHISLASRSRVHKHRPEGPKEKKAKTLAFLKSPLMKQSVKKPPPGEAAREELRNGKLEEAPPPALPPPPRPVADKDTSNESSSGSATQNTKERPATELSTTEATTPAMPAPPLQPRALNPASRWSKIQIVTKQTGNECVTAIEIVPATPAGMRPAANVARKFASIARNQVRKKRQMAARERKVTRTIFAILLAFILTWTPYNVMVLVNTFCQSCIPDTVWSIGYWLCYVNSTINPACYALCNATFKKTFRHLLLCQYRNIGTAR
Test: whole-cell patch clamp of Kir3.[…] current potentiation in HEK cells transfected with hM4D(Gi)
Assay type: cell-based

EC50	Compound
40 ± 10 nM	CN1CCN(C2=Nc3ccccc3Cc3ccccc32)CC1 [PLP, perlapine]
20 ± 4 nM	c1ccc2c(c1)N=C(N1CCNCC1)c1ccccc1N2 [C21, compound 21]
